{"source": "patent US20240016784A1", "about": "“Y BOX BINDING PROTEIN 1 INHIBITORS” (Oregon Health & Science University, priority 2020, published 2024)", "key": {"[1]": {"test_system": "YB-1", "assay": "YB-1 expression in six ovarian cancer cell lines", "format": "cell-based", "settings": "2.5 μM for 12 h; six different OC cell lines", "description": "Out of six targets identified, we selected proteins whose thermal shift is above 5° in the presence of SU056 for further study of protein expression after treatment. […] To study the in vivo effects of SU056 treatment, we analyzed ID8 tumor xenograft samples via immunohistochemistry (IHC). […] To identify the broader effects of SU056 on YB-1 and its downstream protein/activity in different ovarian cancer cell lines, we selected six different cell lines and treated them with SU056 (2.5 μM) for 12 h. Cells were analyzed for YB-1 and CD44 expression and Multidrug resistance 1 (MDR1, ABC pump mediated efflux). […] Finally, we tested the time kinetics and dose-dependent effects of SU056 on YB-1 expression. OVCAR4, OVCAR8, and SKOV3 cells were treated with SU056 (1, 2.5, and 5 μM) for 3, 6, 12, and 24 h and YB-1 expression was measured using YB-1 ELISA. […]\nTotal YB-1 sandwich ELISA: Total YB-1 protein level was analyzed using PathScan® Total YB1 Sandwich ELISA Kit (Cell Signaling, #12543) by following the manufacturer's protocol.\n(§1) FIGS. 4A-4E: SU056 inhibits YB-1. […] FIG. 4C) Respective OC cells were treated with 2.5 μM SU056 for 12 h and YB-1 & CD44 expression and multidrug resistance activity was measured as described in the ‘method’ section. The % inhibition was calculated and compared to the control for the respective cell line. […]"}, "[2]": {"test_system": "ID-8 tumor xenograft", "assay": "ID8 syngeneic ovarian tumor model, tumor growth and lung metastasis", "format": "in vivo, C57BL/6 mice", "description": "These promising results led us to test SU093 and SU056 in vivo. C57BL/6 mice were implanted with 2×10^6 firefly luciferase (luc+)-expressing ID-8 syngeneic ovarian cancer cells subcutaneously. Once the tumors reached 100 mm^3 in size, we began daily intraperitoneal treatment with SU093 and SU056 at 20 mg/kg (vehicle control 30% PEG-300 in saline). Tumor growth was monitored via bioluminescence imaging (IVIS).\nDue to prior observation of a significant reduction in the migratory ability of OC cells treated with the two drugs (FIG. 1H), we also measured the effect of drug treatment on ovarian cancer metastases. At the end of above experiment, lungs were fixed and metastatic foci were counted under the dissecting microscope followed by H&E staining.\nIn vivo xenograft model and drug efficacy study: All animal experiments were reviewed and approved by the Animal Care and Use Committee of Stanford University, CA, USA. Luciferase tagged ID8 (2×10^6) or OVCAR8 (5×10^6) cells were implanted into the right flank of 6-7-week-old female C57BL/6 mice and NOD/SCID mice, respectively. Respective treatment began after tumors grew to 100-200 mm^3 diameters. The ID8 syngeneic mice model was treated with a vehicle (30% PEG-300 in saline), 20 mg/kg SU093, and 20 mg/kg SU056 intraperitoneally (IP) daily for 42 days. At the end of treatment, blood was collected from each mouse and analyzed for liver toxicity parameters, including Alanine Aminotransferase (ALT), Aspartate Aminotransferase (AST), and Alkaline Phosphatase (ALKP). OVCAR8 xenograft mice model was treated with vehicle (30% PEG-300 in saline), 5 mg/kg paclitaxel (once a week), 10 mg/kg SU056 (daily), a combination of paclitaxel (5 mg/kg, once a week) and SU056 (10 mg/kg, daily) for 4 weeks. Mice from both studies were euthanized, the tumor and different organs were collected and fixed in neutral buffered formalin and further processed for immunohistochemical analysis.\nFIGS. 2A-2F. SU093 and SU056 inhibit mice ovarian ID-8 tumor xenograft growth in C57BL/6 mice. Mice were subcutaneously injected with ID-8 cells mixed with Matrigel in 1:1 ratio and the drug treatment started when tumors reached 100 mm^3. […] FIG. 2B) Tumor volume/mouse as a function of time. […] FIG. 2C) Tumor weight/mouse at the end of the study. […] FIG. 2D) Liver toxicity parameters at the end of 42 days showing no significant difference between control, SU093, and SU056. FIGS. 2E-2F) Lung metastasis assay. FIG. 2E) H&E staining of the lung (red arrow indicates the metastasis from ID8 xenograft). Scale bar, 250 μm. FIG. 2F) No. of lung metastatic nodules."}, "[3]": {"test_system": "Multidrug resistance 1 (MDR1, ABC pump mediated efflux)", "assay": "Multidrug Resistance Assay (fluorometric MDR assay)", "format": "cell-based", "settings": "2.5 μM for 12 h; six different OC cell lines", "description": "Out of six targets identified, we selected proteins whose thermal shift is above 5° in the presence of SU056 for further study of protein expression after treatment. […] To study the in vivo effects of SU056 treatment, we analyzed ID8 tumor xenograft samples via immunohistochemistry (IHC). […] To identify the broader effects of SU056 on YB-1 and its downstream protein/activity in different ovarian cancer cell lines, we selected six different cell lines and treated them with SU056 (2.5 μM) for 12 h. Cells were analyzed for YB-1 and CD44 expression and Multidrug resistance 1 (MDR1, ABC pump mediated efflux). […] Finally, we tested the time kinetics and dose-dependent effects of SU056 on YB-1 expression. OVCAR4, OVCAR8, and SKOV3 cells were treated with SU056 (1, 2.5, and 5 μM) for 3, 6, 12, and 24 h and YB-1 expression was measured using YB-1 ELISA. […] 5 μM treatment for 24 h inhibited YB-1 completely (100%) in all three OC cells (FIG. 4E). […]\nas §1"}}}
{"molecule": "O=C1OCC2=C1C(c1cccc(F)c1)c1cc3c(cc1N2CCO)OCO3", "note": "(centres unmarked) [SU056, 9-(3-fluorophenyl)-5-(2-hydroxyethyl)-6,9-dihydro-[1,3]dioxolo[4,5-g]furo[3,4-b]quinolin-8(5H)-one]", "values": [{"measurement": "inhibition of YB-1 expression", "setting": "[1]", "result": "28-56%"}, {"measurement": "reduction in lung metastases", "setting": "[2]; 20 mg/kg daily IP, 42 days, histological scoring", "result": 3, "unit": "fold"}, {"measurement": "reduction in tumor weight", "setting": "[2]; 20 mg/kg daily IP, at 42 days", "result": 2, "unit": "fold"}, {"measurement": "tumor progression vs vehicle control", "setting": "[2]; 20 mg/kg daily intraperitoneal, bioluminescence imaging", "result": "significantly delay the tumor progression"}, {"measurement": "decrease in MDR expression", "setting": "[3]", "result": "41-63%"}]}
